PubChem BioAssay AID687005 (Broad Institute, 2013)
Records with an inconclusive call do not appear. Calls of active or inactive are those of the source.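 How the source made its calls: active means Compounds that reduce signal, with fitted half-maximal dose at or under twice the top valid tested dose; inconclusive means Poor fit, or flat curve losing 30 to 70% of signal; inactive means Potency past limit, flat within 30%, or opposite direction.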

Assay: HEK293T cell cytotoxicity, dose response, cytotoxicity control, ATP luminescence, cherry-pick samples (AID 687005)
Conditions: HEK293T viability, ATP luminescence (CellTiter-Glo), 48 h; at 26 µM (top of the series)
With `C[C@H]1CCCCO[C@H](CN(C)C(=O)c2ccncc2)[C@@H](C)CN([C@@H](C)CO)C(=O)c2cc(NC(=O)Cc3ccccc3)ccc2O1` the activity change, negative = cytotoxicity was -3.36% (inactive). For `COC(=O)C1=C(C)N(Cc2ccc(F)cc2)C(=S)NC1c1cccc(Cl)c1` (configuration not stated), the activity change, negative = cytotoxicity was -1.12% (inactive). For `CO[C@@H]1CN(C)C(=O)c2ccc(NS(=O)(=O)c3ccc(Oc4ccccc4)cc3)cc2OC[C@H](C)NC[C@H]1C`, the activity change, negative = cytotoxicity was -26.5% (inactive). In the case of `COC(=O)C1=C(C)N(Cc2ccc(F)cc2)C(=S)NC1c1cccc(OC)c1` (configuration not stated), the activity change, negative = cytotoxicity is reported as 4.8% (inactive). For `C[C@H](CO)N1C[C@H](C)[C@@H](CN(C)Cc2ccc(Oc3ccccc3)cc2)Oc2ccc(NS(=O)(=O)c3cn(C)cn3)cc2CC1=O`, the activity change, negative = cytotoxicity was -30.9% (inactive). In the case of `CCCC#Cc1cnc2c(c1)C(=O)N([C@@H](C)CO)C[C@H](C)[C@H](CN(C)C(=O)Nc1cccc(F)c1)O2`, the activity change, negative = cytotoxicity is reported as 42% (inactive). With `N#Cc1ccc(C23CC4(C2)[C@H](CN(Cc2ccc(-c5ccccc5)cc2)[C@@H]4c2ccccc2)C3c2ccc(C(F)(F)F)cc2)cc1` (some centres not stated) the activity change, negative = cytotoxicity was -11.2% (inactive). For `CO[C@H](CN(C)Cc1ccc2c(c1)OCO2)[C@@H](C)CN(C(=O)c1ccccc1)[C@@H](C)CO`, the activity change, negative = cytotoxicity was -12.9% (inactive). For `CNC[C@@H]1OCCCC[C@H](C)Oc2ccc(NC(=O)c3ccccc3)cc2C(=O)N([C@@H](C)CO)C[C@@H]1C`, the activity change, negative = cytotoxicity was 6.33% (inactive). For `CCC(=O)N[C@@H]1C=C[C@H](CC(=O)NCC2CCCCC2)O[C@H]1CO`, the activity change, negative = cytotoxicity was -35.2% (inactive). For `CO[C@@H]1CN(C)C(=O)c2ccc(NC(=O)NC(C)C)cc2OC[C@H](C)NC[C@@H]1C`, the activity change, negative = cytotoxicity was -4.93% (inactive). With `C[C@@H]1CN([C@H](C)CO)C(=O)c2cc(NC(=O)Nc3cccc4ccccc34)ccc2O[C@@H]1CN(C)C(=O)Nc1ccccc1` the activity change, negative = cytotoxicity was -5.06% (inactive). For `C[C@H](NC(=O)C[C@@H]1C=C[C@H](NC(=O)CN2CCOCC2)[C@H](CO)O1)c1ccccc1`, the activity change, negative = cytotoxicity was -20.9% (inactive). For `C[C@H]1CN([C@@H](C)CO)C(=O)c2cc(C#CC3(O)CCCC3)cnc2O[C@@H]1CN(C)Cc1cccnc1`, the activity change, negative = cytotoxicity was 13.8% (inactive). In the case of `COc1ccccc1-c1cnc2c(c1)C(=O)N([C@H](C)CO)C[C@@H](C)[C@H](CN(C)Cc1cncnc1)O2`, the activity change, negative = cytotoxicity is reported as 28.4% (inactive). In the case of `CC(C)NC(=O)Nc1ccc2c(c1)C(=O)N([C@@H](C)CO)C[C@@H](C)[C@@H](CN(C)C(=O)c1ccncc1)OCCCC[C@@H](C)O2`, the activity change, negative = cytotoxicity is reported as -15.2% (inactive). With `Cc1noc(C)c1S(=O)(=O)N(C)C[C@@H]1Oc2c(NC(=O)c3cnccn3)cccc2C(=O)N([C@@H](C)CO)C[C@@H]1C` the activity change, negative = cytotoxicity was 6.5% (inactive). In the case of `C[C@@H]1CN([C@H](C)CO)C(=O)c2cc(-c3ccc(F)cc3)cnc2O[C@H]1CN(C)CC1CCCCC1`, the activity change, negative = cytotoxicity is reported as 6.84% (inactive). In the case of `CCCCN1C(=S)NC[C@@H]1Cc1ccccc1`, the activity change, negative = cytotoxicity is reported as 6.24% (inactive). In the case of `Cc1ccc(OCCn2c(=S)[nH]c3ccccc32)c(C(C)C)c1`, the activity change, negative = cytotoxicity is reported as -49.7% (inactive). For `CCOC(=O)NC(=S)Nc1ccc(C(C)(C)C)cc1`, the activity change, negative = cytotoxicity was -11.3% (inactive). In the case of `CCC(=O)N(C)C[C@H]1Oc2cc(-c3ccccc3)ccc2S(=O)(=O)N([C@H](C)CO)C[C@H]1C`, the activity change, negative = cytotoxicity is reported as 6.53% (inactive). With `CO[C@H]1CN(C)C(=O)c2cc(NS(=O)(=O)c3ccc(C)cc3)ccc2OC[C@@H](C)N(C(=O)NC(C)C)C[C@@H]1C` the activity change, negative = cytotoxicity was 26.2% (inactive). For `COc1ccc(NC(=O)N(C)C[C@H]2OCCCC[C@H](C)Oc3ccc(NC(=O)C4CCCCC4)cc3C(=O)N([C@@H](C)CO)C[C@@H]2C)cc1`, the activity change, negative = cytotoxicity was -27.2% (inactive). In the case of `C[C@H]1CN([C@@H](C)CO)C(=O)c2cc(Br)cnc2O[C@@H]1CN(C)Cc1ccccn1`, the activity change, negative = cytotoxicity is reported as 22.1% (inactive). For `Cc1ccccc1-n1ncc2c(SCC(=O)NCc3cccs3)ncnc21`, the activity change, negative = cytotoxicity was -48.1% (inactive). For `CN1[C@H](C(=O)N2CCc3ccccc3C2)[C@@H](CO)[C@@H]2Cn3c(ccc(-c4cccnc4)c3=O)[C@@H]21`, the activity change, negative = cytotoxicity was 7.82% (inactive). With `C[C@@H]1CN([C@H](C)CO)C(=O)c2cc(C#CC(C)(C)O)cnc2O[C@@H]1CN(C)Cc1cncnc1` the activity change, negative = cytotoxicity was 35.1% (inactive). For `C[C@H](CO)N1C[C@H](C)[C@@H](CN(C)Cc2ccncc2)OCCCC[C@H](C)Oc2ccc(NC(=O)NC3CCCCC3)cc2C1=O`, the activity change, negative = cytotoxicity was -0.008% (inactive). For `COc1cccc(S(=O)(=O)N2C[C@@H](O)COC[C@H]3O[C@H](CC(=O)Nc4ccccc4)CC[C@@H]32)c1`, the activity change, negative = cytotoxicity was -41.6% (inactive). For `C[C@@H]1CCCCO[C@H](CN(C)C(=O)c2ccncc2)[C@H](C)CN([C@H](C)CO)C(=O)c2cc(NC(=O)CCC(F)(F)F)ccc2O1`, the activity change, negative = cytotoxicity was -23.2% (inactive). With `CC(C)NC(=O)N[C@H]1CC[C@@H](CCNC(=O)C2CC2)O[C@H]1CO` the activity change, negative = cytotoxicity was 6.21% (inactive).
